The conditions of data set [1]: cited from earlier work.
Data set [2] is described as follows: Pharmacokinetics of chemotherapy components before. Conditions: for Effect of regorafenib on pharmacokinetics/exposure, in words: cycle 2 versus cycle 1; for Cmax in cycle 2 versus cycle 1, in words: following regorafenib dosing.
The nature of data set [3]: Drug-related treatment-emergent adverse events. Format: in vivo, human. The following applies: for Administration interrupted (omitted) / Dose reduction due to adverse events: % of administered cycles.
The test system of data set [4] is UGT1A9. Conditions: cited from earlier work.
The subject of data set [5] is UGT1A1. The following applies: cited from earlier work.
Data set [6] concerns colorectal cancer after progression on standard therapy. Conditions: versus best supportive care 5.0 months; cited from earlier work.
The subject of data set [7] is heavily pretreated colorectal cancer. The following applies: single-agent regorafenib; cited from earlier work.
Setting [8] is: Cycle 1 day 1, before regorafenib dosing.
The mark [9] stands for this setting: Cycle 2 day 1, after regorafenib dosing.
Where [10] appears, read: after versus before regorafenib dosing.

Entries after “also recorded” stand apart in the source; their conditions may differ.

Take `NC(=O)c1cc(Oc2ccc(NC(=O)Nc3ccc(Cl)c(C(F)(F)F)c3)c(F)c2)cc[n+]1[O-]` [M5]: in data set [1], the Half-life was 51 to 64 h.
For `CCc1c2c(nc3ccc(O)cc13)-c1cc3c(c(=O)n1C2)COC(=O)[C@]3(O)CC` [SN-38], in data set [2] (setting [8]), the “AUC, geometric mean” value came to 400 ng·h/mL and the “t½, geometric mean” value came out at 16.8 h. In data set [2] (setting [9]), the “AUC, geometric mean” value is 500 ng·h/mL and the “t½, geometric mean” value came out at 19.3 h. In addition, in data set [2] (setting [10]), the “AUC ratio (90% CI) Cycle 2/Cycle 1” value is given as 1.44 and the “Cmax ratio (90% CI) Cycle 2/Cycle 1” value is on record as 0.91 (0.55–1.50). In addition, in data set [2], the “Effect of regorafenib on pharmacokinetics/exposure, in words” value is “increased exposure; also recorded: increased significantly” and the “Cmax in cycle 2 versus cycle 1, in words” value is recorded as “unchanged”.
In the case of `O=c1[nH]cc(F)c(=O)[nH]1` [5-fluorouracil], the “Administration interrupted (omitted)” value in data set [3] was determined as 8%. Moreover, in data set [3], the “Dose reduction due to adverse events” value is given as 18%. Also, the “Cmax ratio (90% CI) Cycle 2/Cycle 1” value was 0.92 (0.06–13.9) in data set [2] (FOLFIRI regimen) and 0.89 (0.50–1.61) in data set [2] (FOLFOX regimen). Further, the “t½, geometric mean” value in data set [2] (FOLFIRI regimen, Cycle 1, before regorafenib dosing) came out at 0.2 H; in data set [2] (FOLFOX regimen, Cycle 1, before regorafenib dosing), 0.4 H; in data set [2] (FOLFOX regimen, Cycle 2, after regorafenib dosing), 2.4 H. Moreover, in data set [2] (FOLFOX regimen), the “AUC ratio (90% CI) Cycle 2/Cycle 1” value was 1.06 (0.69–1.64). Further, the “Effect of regorafenib on pharmacokinetics/exposure, in words” value in data set [2] is “no significant effect”.
Regarding `O=C1[O][Pt]2([NH][C@@H]3CCCC[C@H]3[NH]2)[O]C1=O` [Oxaliplatin, oxaliplatin], in data set [3], the “Administration interrupted (omitted)” value turned out to be 11% and the “Dose reduction due to adverse events” value was 11%. Also, the “Effect of regorafenib on pharmacokinetics/exposure, in words” value in data set [2] is reported as “no significant effect”.
Consider `CCc1c2c(nc3ccc(OC(=O)N4CCC(N5CCCCC5)CC4)cc13)-c1cc3c(c(=O)n1C2)COC(=O)[C@]3(O)CC` [Irinotecan, irinotecan], for which, in data set [3], the “Administration interrupted (omitted)” value was found to be 5% and the “Dose reduction due to adverse events” value came out at 12%. Further, in data set [2] (setting [10]), the “AUC ratio (90% CI) Cycle 2/Cycle 1” value came to 1.28 and the “Cmax ratio (90% CI) Cycle 2/Cycle 1” value is reported as 1.22 (0.80–1.85). For the same molecule, in data set [2], the “Effect of regorafenib on pharmacokinetics/exposure, in words” value was “increased exposure; also recorded: increased significantly” and the “Cmax in cycle 2 versus cycle 1, in words” value was “only slightly increased”. Also, in data set [2] (human, in vivo, geometric mean, Cycle 1 day 1, before regorafenib dosing), the AUC (commonly concentration integrated over time) turned out to be 10700 ng·h/mL. For the same molecule, the area under the curve (AUC) in data set [2] (human, in vivo, geometric mean, Cycle 2 day 1, after regorafenib dosing) turned out to be 13800 ng·h/mL. Also, the peak level in data set [2] (human, in vivo, Cmax, geometric mean, Cycle 1 day 1, before regorafenib dosing) (Cmax) was 1900 ng/mL.
As to `CNC(=O)c1cc(Oc2ccc(NC(=O)Nc3ccc(Cl)c(C(F)(F)F)c3)c(F)c2)ccn1` [Regorafenib], in data set [4], the “Inhibition of UGT1A9, in words” value was “strong inhibitor”. In data set [3] (regorafenib 160 mg once daily days 4–10 and 18–24), the “Tolerability in combination with chemotherapy (FOLFOX or FOLFIRI), in words” value is on record as “acceptable tolerability”. In data set [1], the Half-life was 25 h. Besides, in data set [5], the “Inhibition of UGT1A1, in words” value is “strong inhibitor”. Moreover, the “Overall survival (OS)” value in data set [6] is 6.4 months. Moreover, the Stable disease in data set [7] is reported as 19 of 27.
As to `CNC(=O)c1cc(Oc2ccc(NC(=O)Nc3ccc(Cl)c(C(F)(F)F)c3)c(F)c2)cc[n+]1[O-]` [M2], in data set [1], the Half-life is 26 to 28 h.

The values are drawn from publication PMC3660081 (Annals of Oncology, 2013).
